Laboratory results reported in ChEMBL document CHEMBL1201862, “PubChem BioAssay data set” (2004).
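Growth conditions: 96-well plates. Treatment: test compound, 48 hours, 5 concentrations. Analysis: linear interpolation between bracketing concentrations; unreached endpoints set to highest concentration. GI50 is the concentration that inhibits growth by half.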 Active and inactive are the calls of the source. Rule as the data show it: active = GI50 up to about 1.1 µM and inactive = higher.

Experiments:
Experiment in all cases: growth of human tumour cells (NCI), 48 h
Malme-3M = test system: Malme-3M
RPMI-8226 = test system: RPMI-8226
CAKI-1 = test system: CAKI-1
A549 = test system: A549
TK-10 = test system: TK-10
HL-60 = test system: HL-60
SW-620 = test system: SW-620
K562 = test system: K562
SF-268 = test system: SF-268
EKVX = test system: EKVX
MOLT-4 = test system: MOLT-4
A498 = test system: A498
SNB-75 = test system: SNB-75
M14 = test system: M14
COLO 205 = test system: COLO 205
BT-549 = test system: BT-549
PC-3 = test system: PC-3
NCI-H522 = test system: NCI-H522
SK-MEL-2 = test system: SK-MEL-2
SF-539 = test system: SF-539

Measured: GI50

CC(C)CN(CC#N)CC(C)C
inactive: Malme-3M > 100 µM | RPMI-8226 48.9 µM | CAKI-1 > 100 µM | A549 > 100 µM | TK-10 > 100 µM | HL-60 > 100 µM | SW-620 > 100 µM | K562 > 100 µM | SF-268 > 100 µM | EKVX > 100 µM | MOLT-4 > 100 µM | A498 > 100 µM | SNB-75 > 100 µM | M14 > 100 µM | COLO 205 > 100 µM | BT-549 > 100 µM | PC-3 > 100 µM | NCI-H522 > 100 µM

CC(CC(C#N)(c1ccccc1)c1ccccc1)N1CCCCC1 (stereo unspecified)
inactive: Malme-3M 17.3 µM | RPMI-8226 19.2 µM | CAKI-1 39 µM | A549 44 µM | SK-MEL-2 21.2 µM | TK-10 20.6 µM | HL-60 21 µM | SW-620 19.2 µM | K562 19.3 µM | SF-268 48.9 µM | EKVX 23.8 µM | MOLT-4 22.4 µM | A498 21.6 µM | SNB-75 29.7 µM | M14 19 µM | COLO 205 16.2 µM | BT-549 29.5 µM | PC-3 32.6 µM | NCI-H522 18.6 µM

Cc1cccc(/N=N/C(=O)NNc2cccc(C)c2C)c1C
inactive: Malme-3M 21.7 µM | RPMI-8226 29.4 µM | CAKI-1 39 µM | A549 31.2 µM | SK-MEL-2 21.9 µM | TK-10 37.7 µM | HL-60 24.5 µM | SW-620 34 µM | K562 33.7 µM | SF-268 34 µM | MOLT-4 > 10 µM | A498 34 µM | SNB-75 54.3 µM | M14 41.8 µM | BT-549 23.3 µM | PC-3 31.5 µM | NCI-H522 24.7 µM

C#CCCOC(=O)CC1=C(C)/C(=C/c2ccc([S+](C)[O-])cc2)c2ccc(F)cc21 (stereo unspecified)
inactive: RPMI-8226 11 µM | CAKI-1 6.19 µM | SK-MEL-2 15.7 µM | SF-539 16.2 µM | TK-10 28.3 µM | HL-60 5.79 µM | SW-620 14.3 µM | K562 13.2 µM | SF-268 20.6 µM | EKVX 22.8 µM | MOLT-4 17.5 µM | A498 10.6 µM | SNB-75 16.3 µM | M14 16.2 µM | COLO 205 15.2 µM | BT-549 13.8 µM | PC-3 11.3 µM | NCI-H522 17.3 µM

O=C1C=C/C(=N/c2ccccc2)c2ccccc21
inactive: RPMI-8226 12.8 µM | CAKI-1 14.8 µM | A549 7.38 µM | SK-MEL-2 2.19 µM | SF-539 15.1 µM | TK-10 16.9 µM | HL-60 4.89 µM | SW-620 7.03 µM | K562 12.5 µM | SF-268 11.3 µM | EKVX 2.06 µM | MOLT-4 5.41 µM | A498 21.2 µM | SNB-75 6.53 µM | M14 6.21 µM | COLO 205 7.03 µM | BT-549 14.7 µM | PC-3 10.5 µM | NCI-H522 10.2 µM

COc1cc(C(CN)N(C)C)cc(OC)c1OC (stereo unspecified)
inactive: Malme-3M > 100 µM | CAKI-1 > 100 µM | A549 > 100 µM | SF-539 > 100 µM | TK-10 > 100 µM | HL-60 > 100 µM | SW-620 > 100 µM | K562 > 100 µM | SF-268 > 100 µM | EKVX > 100 µM | MOLT-4 > 100 µM | A498 > 100 µM | M14 > 100 µM | COLO 205 77.8 µM | BT-549 > 100 µM | PC-3 > 100 µM | NCI-H522 > 100 µM

N/N=C(\N)SCCCCCCCCCCS/C(N)=N/N
inactive: Malme-3M 12 µM | RPMI-8226 23.3 µM | CAKI-1 36.1 µM | A549 18 µM | SK-MEL-2 16.7 µM | SF-539 29.6 µM | TK-10 20.3 µM | HL-60 17.3 µM | SW-620 17.7 µM | K562 15.1 µM | SF-268 30.3 µM | EKVX 31.1 µM | A498 15.1 µM | M14 29.4 µM | COLO 205 14.6 µM | BT-549 19.5 µM | PC-3 34.6 µM | NCI-H522 17.1 µM

Cc1nc(-c2ccc(/N=C/c3ccc(N(CCOS(C)(=O)=O)CCOS(C)(=O)=O)cc3C)cc2)cs1
inactive: Malme-3M 28.9 µM | RPMI-8226 17.8 µM | A549 11.3 µM | SK-MEL-2 > 100 µM | SF-539 3.04 µM | TK-10 55.5 µM | HL-60 3.94 µM | SW-620 67.9 µM | K562 26.5 µM | SF-268 5.14 µM | MOLT-4 2.09 µM | A498 2.31 µM | SNB-75 40.9 µM | M14 60 µM | COLO 205 28.5 µM | BT-549 28.2 µM | PC-3 20.9 µM | NCI-H522 24.3 µM

COC(=O)c1c(O)ccc2c1c1cc3ccccc3c(O)c1n2CCc1ccc(OC)c(OC)c1
inactive: Malme-3M 59.4 µM | RPMI-8226 18.9 µM | CAKI-1 68.7 µM | A549 43.2 µM | SK-MEL-2 58.2 µM | SF-539 98.9 µM | TK-10 > 100 µM | HL-60 65.9 µM | K562 87.1 µM | SF-268 76.4 µM | EKVX > 100 µM | MOLT-4 89.3 µM | A498 > 100 µM | M14 86.7 µM | COLO 205 15.5 µM | BT-549 16.7 µM | PC-3 59.8 µM | NCI-H522 21.1 µM

CC(O)(Cc1ccccc1C#N)Cc1ccccc1C#N
inactive: Malme-3M > 100 µM | CAKI-1 > 100 µM | A549 > 100 µM | SK-MEL-2 > 100 µM | SF-539 > 100 µM | TK-10 > 100 µM | HL-60 4 µM | SW-620 > 100 µM | K562 50 µM | SF-268 > 100 µM | EKVX > 100 µM | MOLT-4 28.6 µM | A498 > 100 µM | SNB-75 37 µM | M14 > 100 µM | COLO 205 70.8 µM | BT-549 38.5 µM | PC-3 71.3 µM | NCI-H522 > 100 µM

CC1(CCCO)CCCCCCCCCC(C)(CCCO)C1=O (stereo unspecified)
inactive: Malme-3M > 100 µM | RPMI-8226 > 100 µM | CAKI-1 > 100 µM | A549 87.3 µM | SK-MEL-2 97.5 µM | HL-60 40 µM | SW-620 > 100 µM | K562 > 100 µM | SF-268 > 100 µM | EKVX > 100 µM | MOLT-4 > 100 µM | A498 > 100 µM | SNB-75 > 100 µM | M14 > 100 µM | COLO 205 > 100 µM | BT-549 > 100 µM | PC-3 > 100 µM | NCI-H522 > 100 µM

CC(=O)Oc1ccc(OC(Oc2ccccc2)c2ccccc2)cc1 (stereo unspecified)
inactive: Malme-3M 23.6 µM | CAKI-1 20 µM | A549 37.5 µM | SF-539 23.1 µM | TK-10 67.3 µM | HL-60 12.6 µM | SW-620 38.6 µM | K562 51.4 µM | SF-268 33 µM | EKVX 41.6 µM | MOLT-4 34 µM | A498 23.7 µM | SNB-75 10.4 µM | M14 17.5 µM | COLO 205 40.7 µM | BT-549 27 µM | PC-3 30 µM | NCI-H522 42.6 µM

Clc1cc2nnn(C3CCCO3)c2cc1Cl (stereo unspecified)
inactive: Malme-3M > 100 µM | CAKI-1 > 100 µM | A549 > 100 µM | SK-MEL-2 > 100 µM | SF-539 > 100 µM | TK-10 > 100 µM | HL-60 > 100 µM | K562 > 100 µM | SF-268 > 100 µM | EKVX 66.1 µM | MOLT-4 83.6 µM | A498 98.4 µM | SNB-75 20 µM | M14 > 100 µM | COLO 205 > 100 µM | BT-549 49.7 µM | PC-3 > 100 µM | NCI-H522 > 100 µM

O=c1c(C(c2ccc(-c3ccccc3)cc2)c2c(O)oc3ccccc3c2=O)c(O)oc2ccccc12
inactive: Malme-3M 24.7 µM | RPMI-8226 25.9 µM | CAKI-1 19.9 µM | SK-MEL-2 22.5 µM | TK-10 51.9 µM | HL-60 23.2 µM | SW-620 16.4 µM | K562 45.5 µM | SF-268 21.8 µM | EKVX 46.6 µM | MOLT-4 33.5 µM | A498 31 µM | SNB-75 24.5 µM | COLO 205 34.6 µM | BT-549 19.2 µM | PC-3 24.2 µM | NCI-H522 24 µM

O=c1c(C(c2cc(OCc3ccccc3)cc(OCc3ccccc3)c2)c2c(O)oc3ccccc3c2=O)c(O)oc2ccccc12
inactive: RPMI-8226 1.66 µM | CAKI-1 7.26 µM | A549 7.05 µM | SK-MEL-2 3.86 µM | SF-539 5.86 µM | TK-10 11.5 µM | HL-60 2.51 µM | SW-620 4.58 µM | K562 3.35 µM | SF-268 5.07 µM | EKVX 9.04 µM | MOLT-4 3.91 µM | A498 12 µM | SNB-75 3.37 µM | M14 7.13 µM | COLO 205 8.45 µM | BT-549 5.01 µM | PC-3 4 µM | NCI-H522 8.61 µM
